Assay results reported in ChEMBL document CHEMBL5723582, “Data for DCP probe T-10430” (2024).

Key:
Conditions in all cases: Compound concentration 1.0 uM
[1] = biological target: G-protein coupled receptor 161 (Homo sapiens) (UniProt Q8N6U8); assay: RLU of GPR161 at 1.0 µM in the […] PRESTO-Tango GPCRome screen
[2] = biological target: 5-hydroxytryptamine receptor 1D (Homo sapiens) (UniProt P28221); assay: RLU of HTR1D at 1.0 µM in the […] PRESTO-Tango GPCRome screen
[3] = biological target: Probable G-protein coupled receptor 148 (Homo sapiens) (UniProt Q8TDV2); assay: RLU of GPR148 at 1.0 µM in the […] PRESTO-Tango GPCRome screen
[4] = biological target: Neuropeptide Y receptor type 5 (Homo sapiens) (UniProt Q15761); assay: RLU of NPY5R at 1.0 µM in the […] PRESTO-Tango GPCRome screen
[5] = biological target: Adhesion G-protein coupled receptor F1 (Homo sapiens) (UniProt Q5T601); assay: RLU of GPR110 at 1.0 µM in the […] PRESTO-Tango GPCRome screen
[6] = biological target: Putative adhesion G protein-coupled receptor F2P (Homo sapiens) (UniProt Q8IZF7); assay: RLU of GPR111 at 1.0 µM in the […] PRESTO-Tango GPCRome screen
[7] = biological target: Hydroxycarboxylic acid receptor 1 (Homo sapiens) (UniProt Q9BXC0); assay: RLU of HCA1 at 1.0 µM in the Aequorin PRESTO-Tango GPCRome screen
[8] = biological target: Mas-related G-protein coupled receptor member X3 (Homo sapiens) (UniProt Q96LB0); assay: RLU of MRGPRX3 at 1.0 µM in the […] PRESTO-Tango GPCRome screen
[9] = biological target: Oxytocin receptor (Homo sapiens) (UniProt P30559); assay: RLU of OXTR at 1.0 µM in the […] PRESTO-Tango GPCRome screen
[10] = biological target: G-protein coupled receptor 39 (Homo sapiens) (UniProt O43194); assay: RLU of GPR39 at 1.0 µM in the […] PRESTO-Tango GPCRome screen
[11] = biological target: 5-hydroxytryptamine receptor 1B (Homo sapiens) (UniProt P28222); assay: RLU of HTR1B at 1.0 µM in the Aequorin PRESTO-Tango GPCRome screen
[12] = biological target: G-protein coupled receptor 78 (Homo sapiens) (UniProt Q96P69); assay: RLU of GPR78 at 1.0 µM in the […] PRESTO-Tango GPCRome screen
[13] = biological target: G-protein coupled estrogen receptor 1 (Homo sapiens) (UniProt Q99527); assay: RLU of GPER at 1.0 µM in the […] PRESTO-Tango GPCRome screen
[14] = biological target: Adhesion G protein-coupled receptor F4 (Homo sapiens) (UniProt Q8IZF3); assay: RLU of GPR115 at 1.0 µM in the […] PRESTO-Tango GPCRome screen
[15] = biological target: Melanocyte-stimulating hormone receptor (Homo sapiens) (UniProt Q01726); assay: RLU of MC1R at 1.0 µM in the […] PRESTO-Tango GPCRome screen
[16] = biological target: Growth hormone secretagogue receptor type 1 (Homo sapiens) (UniProt Q92847); assay: RLU of GHSR at 1.0 µM in the […] PRESTO-Tango GPCRome screen
[17] = biological target: Probable G-protein coupled receptor 150 (Homo sapiens) (UniProt Q8NGU9); assay: RLU of GPR150 at 1.0 µM in the […] PRESTO-Tango GPCRome screen
[18] = biological target: Vasoactive intestinal polypeptide receptor 2 (Homo sapiens) (UniProt P41587); assay: RLU of VIPR2 at 1.0 µM in the […] PRESTO-Tango GPCRome screen
[19] = biological target: Prolactin-releasing peptide receptor (Homo sapiens) (UniProt P49683); assay: RLU of PRRP at 1.0 µM in the […] PRESTO-Tango GPCRome screen
[20] = biological target: Free fatty acid receptor 1 (Homo sapiens) (UniProt O14842); assay: RLU of FFA1 (GPR40) at 1.0 µM in the […] PRESTO-Tango GPCRome screen
[21] = biological target: Parathyroid hormone 2 receptor (Homo sapiens) (UniProt P49190); assay: RLU of PTH2R at 1.0 µM in the […] PRESTO-Tango GPCRome screen
[22] = biological target: Prostaglandin D2 receptor (Homo sapiens) (UniProt Q13258); assay: RLU of PTGDR at 1.0 µM in the […] PRESTO-Tango GPCRome screen
[23] = biological target: Adhesion G protein-coupled receptor A1 (Homo sapiens) (UniProt Q86SQ6); assay: RLU of GPR123 at 1.0 µM in the […] PRESTO-Tango GPCRome screen
[24] = biological target: Lysophosphatidic acid receptor 4 (Homo sapiens) (UniProt Q99677); assay: RLU of LPAR4 at 1.0 µM in the […] PRESTO-Tango GPCRome screen
[25] = biological target: Growth hormone-releasing hormone receptor (Homo sapiens) (UniProt Q02643); assay: RLU of GHRHR at 1.0 µM in the […] PRESTO-Tango GPCRome screen
[26] = biological target: Sphingosine 1-phosphate receptor 1 (Homo sapiens) (UniProt P21453); assay: RLU of S1PR1 at 1.0 µM in the […] PRESTO-Tango GPCRome screen
[27] = biological target: Beta-1 adrenergic receptor (Homo sapiens) (UniProt P08588); assay: RLU of ADRB1 at 1.0 µM in the […] PRESTO-Tango GPCRome screen
[28] = biological target: N-formyl peptide receptor 3 (Homo sapiens) (UniProt P25089); assay: RLU of FPR3 at 1.0 µM in the […] PRESTO-Tango GPCRome screen
[29] = biological target: Neuropeptides B/W receptor type 2 (Homo sapiens) (UniProt P48146); assay: RLU of NPBW2 at 1.0 µM in the […] PRESTO-Tango GPCRome screen
[30] = biological target: Platelet-activating factor receptor (Homo sapiens) (UniProt P25105); assay: RLU of PTAFR at 1.0 µM in the […] PRESTO-Tango GPCRome screen
[31] = biological target: Lysophosphatidic acid receptor 1 (Homo sapiens) (UniProt Q92633); assay: RLU of LPAR1 at 1.0 µM in the […] PRESTO-Tango GPCRome screen
[32] = biological target: Pituitary adenylate cyclase-activating polypeptide type I receptor (Homo sapiens) (UniProt P41586); assay: RLU of ADCYAP1R1 at 1.0 µM in the […] PRESTO-Tango GPCRome screen
[33] = biological target: Beta-2 adrenergic receptor (Homo sapiens) (UniProt P07550); assay: RLU of ADRB2 at 1.0 µM in the […] PRESTO-Tango GPCRome screen
[34] = biological target: Prostaglandin F2-alpha receptor (Homo sapiens) (UniProt P43088); assay: RLU of PTGFR at 1.0 µM in the […] PRESTO-Tango GPCRome screen
[35] = biological target: G-protein coupled receptor 143 (Homo sapiens) (UniProt P51810); assay: RLU of GPR143 at 1.0 µM in the […] PRESTO-Tango GPCRome screen
G-protein coupled receptor 143 (Homo sapiens), sequence (P51810 whole entry): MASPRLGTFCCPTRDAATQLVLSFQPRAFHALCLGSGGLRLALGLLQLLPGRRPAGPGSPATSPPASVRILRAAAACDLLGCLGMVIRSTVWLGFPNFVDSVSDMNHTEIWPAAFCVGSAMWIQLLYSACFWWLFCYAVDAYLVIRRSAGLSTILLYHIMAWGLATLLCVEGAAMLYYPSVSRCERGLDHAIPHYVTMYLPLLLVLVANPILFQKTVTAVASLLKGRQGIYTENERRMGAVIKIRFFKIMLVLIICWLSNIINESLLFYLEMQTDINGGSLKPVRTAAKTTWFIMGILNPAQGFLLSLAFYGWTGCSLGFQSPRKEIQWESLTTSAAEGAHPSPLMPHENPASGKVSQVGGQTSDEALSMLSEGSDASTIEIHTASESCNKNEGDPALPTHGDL

G-protein coupled receptor 78 (Homo sapiens), sequence (Q96P69 whole entry): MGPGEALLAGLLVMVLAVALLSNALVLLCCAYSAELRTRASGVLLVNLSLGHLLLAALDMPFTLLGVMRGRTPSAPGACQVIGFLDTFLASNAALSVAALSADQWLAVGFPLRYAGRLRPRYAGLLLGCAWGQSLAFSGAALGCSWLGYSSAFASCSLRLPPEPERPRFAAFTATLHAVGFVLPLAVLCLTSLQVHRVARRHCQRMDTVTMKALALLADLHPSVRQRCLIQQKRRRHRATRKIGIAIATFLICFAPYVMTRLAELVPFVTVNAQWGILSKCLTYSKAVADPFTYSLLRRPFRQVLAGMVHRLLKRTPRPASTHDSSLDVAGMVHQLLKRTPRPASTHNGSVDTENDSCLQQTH
Probable G-protein coupled receptor 148 (Homo sapiens), sequence (Q8TDV2 whole entry): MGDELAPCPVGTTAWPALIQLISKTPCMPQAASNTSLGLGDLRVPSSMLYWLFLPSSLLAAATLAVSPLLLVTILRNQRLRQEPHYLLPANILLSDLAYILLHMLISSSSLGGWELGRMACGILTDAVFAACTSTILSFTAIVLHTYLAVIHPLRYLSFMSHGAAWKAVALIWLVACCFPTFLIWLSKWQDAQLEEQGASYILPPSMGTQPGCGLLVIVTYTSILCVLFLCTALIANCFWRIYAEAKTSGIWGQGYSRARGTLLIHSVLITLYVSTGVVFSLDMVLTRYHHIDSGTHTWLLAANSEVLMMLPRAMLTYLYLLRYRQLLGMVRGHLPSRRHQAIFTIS
Prolactin-releasing peptide receptor (Homo sapiens), sequence (P49683 whole entry): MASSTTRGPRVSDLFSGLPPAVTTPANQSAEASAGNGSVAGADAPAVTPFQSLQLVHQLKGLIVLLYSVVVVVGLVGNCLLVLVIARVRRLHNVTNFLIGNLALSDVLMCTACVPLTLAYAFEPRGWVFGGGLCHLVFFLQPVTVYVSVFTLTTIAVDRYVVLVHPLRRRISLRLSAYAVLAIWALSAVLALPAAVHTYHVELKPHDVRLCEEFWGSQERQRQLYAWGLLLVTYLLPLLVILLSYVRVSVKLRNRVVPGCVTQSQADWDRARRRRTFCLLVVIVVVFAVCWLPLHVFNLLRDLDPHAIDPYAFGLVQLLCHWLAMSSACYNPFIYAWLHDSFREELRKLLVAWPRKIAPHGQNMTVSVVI
Probable G-protein coupled receptor 150 (Homo sapiens), sequence (Q8NGU9 whole entry): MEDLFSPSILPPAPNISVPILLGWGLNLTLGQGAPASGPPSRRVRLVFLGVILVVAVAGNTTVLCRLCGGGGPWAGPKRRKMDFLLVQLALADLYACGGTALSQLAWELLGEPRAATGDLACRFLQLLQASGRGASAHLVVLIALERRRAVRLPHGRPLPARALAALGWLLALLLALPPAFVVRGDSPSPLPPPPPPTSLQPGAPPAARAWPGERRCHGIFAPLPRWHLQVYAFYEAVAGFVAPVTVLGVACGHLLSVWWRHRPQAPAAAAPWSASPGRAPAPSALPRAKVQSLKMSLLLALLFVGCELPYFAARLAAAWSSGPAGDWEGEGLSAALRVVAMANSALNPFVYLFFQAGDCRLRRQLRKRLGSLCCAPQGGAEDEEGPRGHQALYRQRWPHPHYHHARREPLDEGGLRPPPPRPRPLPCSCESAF
Neuropeptides B/W receptor type 2 (Homo sapiens), sequence (P48146 whole entry): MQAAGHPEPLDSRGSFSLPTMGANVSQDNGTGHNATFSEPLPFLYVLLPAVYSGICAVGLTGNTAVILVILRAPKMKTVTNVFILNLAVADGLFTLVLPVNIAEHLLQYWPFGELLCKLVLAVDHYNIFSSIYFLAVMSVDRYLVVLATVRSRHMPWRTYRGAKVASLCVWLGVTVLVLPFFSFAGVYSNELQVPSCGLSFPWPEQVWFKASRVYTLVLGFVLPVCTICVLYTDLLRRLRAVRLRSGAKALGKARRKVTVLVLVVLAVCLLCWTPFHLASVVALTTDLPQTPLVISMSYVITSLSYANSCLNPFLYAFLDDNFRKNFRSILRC
Pituitary adenylate cyclase-activating polypeptide type I receptor (Homo sapiens), sequence (P41586 21-468 limits assumed): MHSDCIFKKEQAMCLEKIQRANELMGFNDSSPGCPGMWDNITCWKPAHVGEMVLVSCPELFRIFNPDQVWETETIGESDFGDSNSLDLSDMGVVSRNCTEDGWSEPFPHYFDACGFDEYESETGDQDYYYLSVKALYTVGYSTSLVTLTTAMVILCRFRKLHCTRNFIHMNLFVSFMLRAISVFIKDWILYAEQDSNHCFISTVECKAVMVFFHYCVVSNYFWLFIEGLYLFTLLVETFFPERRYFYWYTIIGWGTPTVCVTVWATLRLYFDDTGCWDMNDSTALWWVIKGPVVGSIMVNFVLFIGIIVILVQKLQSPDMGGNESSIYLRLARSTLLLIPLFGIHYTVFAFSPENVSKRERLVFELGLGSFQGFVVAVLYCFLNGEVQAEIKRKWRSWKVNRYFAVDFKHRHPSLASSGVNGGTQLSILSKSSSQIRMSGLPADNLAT
Beta-2 adrenergic receptor (Homo sapiens), sequence (P07550 whole entry, looked up): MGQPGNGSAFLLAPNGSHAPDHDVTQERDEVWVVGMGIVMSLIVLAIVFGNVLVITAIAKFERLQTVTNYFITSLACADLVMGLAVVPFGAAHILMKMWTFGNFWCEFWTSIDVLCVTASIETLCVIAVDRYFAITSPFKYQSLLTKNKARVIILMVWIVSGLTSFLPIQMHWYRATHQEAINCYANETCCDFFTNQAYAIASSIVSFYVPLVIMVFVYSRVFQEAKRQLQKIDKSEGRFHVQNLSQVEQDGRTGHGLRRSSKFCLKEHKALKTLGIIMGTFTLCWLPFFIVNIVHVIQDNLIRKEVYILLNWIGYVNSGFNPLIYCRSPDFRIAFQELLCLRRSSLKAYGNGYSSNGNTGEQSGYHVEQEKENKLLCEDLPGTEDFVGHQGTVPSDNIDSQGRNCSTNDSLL
Growth hormone-releasing hormone receptor (Homo sapiens), sequence (Q02643 whole entry): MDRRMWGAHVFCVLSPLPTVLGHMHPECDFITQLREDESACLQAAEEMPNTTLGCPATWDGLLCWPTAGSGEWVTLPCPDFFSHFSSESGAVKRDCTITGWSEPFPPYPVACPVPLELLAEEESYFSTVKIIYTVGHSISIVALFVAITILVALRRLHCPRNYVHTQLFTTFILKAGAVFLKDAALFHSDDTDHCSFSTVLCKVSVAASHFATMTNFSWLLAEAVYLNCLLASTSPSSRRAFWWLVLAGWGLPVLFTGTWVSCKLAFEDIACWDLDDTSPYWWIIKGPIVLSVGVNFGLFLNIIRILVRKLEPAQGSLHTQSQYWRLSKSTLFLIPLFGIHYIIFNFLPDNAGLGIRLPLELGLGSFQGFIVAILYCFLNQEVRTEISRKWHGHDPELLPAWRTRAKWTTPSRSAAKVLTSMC
Neuropeptide Y receptor type 5 (Homo sapiens), sequence (Q15761 whole entry): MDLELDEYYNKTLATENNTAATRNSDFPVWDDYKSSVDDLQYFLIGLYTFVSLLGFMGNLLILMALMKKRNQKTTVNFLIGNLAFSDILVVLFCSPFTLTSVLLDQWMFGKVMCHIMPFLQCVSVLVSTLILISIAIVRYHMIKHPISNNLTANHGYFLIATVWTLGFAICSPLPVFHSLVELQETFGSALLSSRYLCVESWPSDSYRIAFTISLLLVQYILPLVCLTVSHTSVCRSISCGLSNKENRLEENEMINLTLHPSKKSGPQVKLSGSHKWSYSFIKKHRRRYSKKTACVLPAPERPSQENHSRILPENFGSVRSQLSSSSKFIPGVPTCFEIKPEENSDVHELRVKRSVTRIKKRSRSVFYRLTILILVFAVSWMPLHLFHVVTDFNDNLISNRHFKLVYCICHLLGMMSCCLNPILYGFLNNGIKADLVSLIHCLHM
Prostaglandin F2-alpha receptor (Homo sapiens), sequence (P43088 whole entry): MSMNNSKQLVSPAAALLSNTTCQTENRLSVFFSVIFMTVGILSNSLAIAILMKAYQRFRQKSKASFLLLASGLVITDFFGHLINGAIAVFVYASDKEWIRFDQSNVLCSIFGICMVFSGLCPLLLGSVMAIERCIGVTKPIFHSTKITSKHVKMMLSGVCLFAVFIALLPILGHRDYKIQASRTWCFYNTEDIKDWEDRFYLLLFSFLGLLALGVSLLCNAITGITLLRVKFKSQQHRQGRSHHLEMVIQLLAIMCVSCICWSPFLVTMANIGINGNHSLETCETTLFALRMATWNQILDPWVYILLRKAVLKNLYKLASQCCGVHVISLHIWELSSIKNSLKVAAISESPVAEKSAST
Mas-related G-protein coupled receptor member X3 (Homo sapiens), sequence (Q96LB0 whole entry): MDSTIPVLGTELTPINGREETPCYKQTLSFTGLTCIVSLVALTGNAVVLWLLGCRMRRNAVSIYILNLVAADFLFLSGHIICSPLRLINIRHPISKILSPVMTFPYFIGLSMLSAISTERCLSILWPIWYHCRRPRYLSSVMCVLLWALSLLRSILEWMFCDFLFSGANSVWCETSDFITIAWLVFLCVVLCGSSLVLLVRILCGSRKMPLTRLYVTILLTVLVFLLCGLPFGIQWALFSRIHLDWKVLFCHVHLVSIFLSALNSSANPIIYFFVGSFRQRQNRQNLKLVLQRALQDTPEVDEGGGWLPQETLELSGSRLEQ

RLU [1]: -2640 | RLU [2]: -12300 | RLU [3]: 3090 | RLU [4]: -14500 | RLU [5]: 9360 | RLU [6]: -1360 | RLU [7]: 583 | RLU [8]: -916 | RLU [9]: -479 | RLU [10]: 8020 | RLU [11]: 77.2 | RLU [12]: 5.41 | RLU [13]: -607 | RLU [14]: -283 | RLU [15]: -1890 | RLU [16]: 1260 | RLU [17]: -1600 | RLU [18]: -824 | RLU [19]: 4140 | RLU [20]: 2090 | RLU [21]: -1530 | RLU [22]: 375 | RLU [23]: 2100 | RLU [24]: -668 | RLU [25]: -1060 | RLU [26]: 11000 | RLU [27]: 19400 | RLU [28]: 2840 | RLU [29]: -872 | RLU [30]: 82.9 | RLU [31]: 280 | RLU [32]: 1630 | RLU [33]: 4580 | RLU [34]: -81.2 | RLU [35]: -2070
Compound: CCCCC(=O)N1CC2(C1)CN(c1ccccc1-c1nnn[nH]1)C2
